We go through eleven compounds from US20030216569A1, “Method of making HIV protease inhibitors” (priority 1993, published 2003).

The subject of assay [1] is Viral SN123 infected CEM cells.
Description: Purpose: To determine IC50 CC50 for compounds:
Media A [1% DMSO] (100 microliters DMSO+9.9 ml media A)
CEM cells @ [1×10^4] cells/ml (4 plate=40 ml) (6 plate=60 ml)
(need 70 microliters of each)
A-D at [10 mM] in 100% DMSO
4 or 6 u-bottom 96-well plates
4 flat bottom 96-well plates for dilutions
8-10 boxes of sterile costar tips
Approximately 10 reagent trays
1000 cells/well=1×10^4 cells/ml=1000 cells/100 microliters 200 microliters=total volume in a well
Cell Preparation and Plating of Cells, Media A and Media A (1% DMSO)
a. Number a 96-well tissue culture plate for each compound tested, one for a control plate, and one for the control compound.
b. Count cells on hemacytometer and resuspend them in 40 ml or 80 ml of Media A at a concentration of [1×10^4]0 cells/ml.
Counting Cells on a Hemacytomer:
Label two 1.8 ml nuc tubes 1 and 2.
Put 0.5 ml of well mixed CEM cells (in growth phase) in tube 1.
Put 50 micoliters PBS and 40 microliters of trypan blue into tube 2.
Mix up the cells in tube 1 then remove 10 microliters of cells and put them into tube 2.
Mix well in tube 2, then remove 10 microliters of the stained cells and put them on the hemacytometer.
Count the number of cells in the center square of the hemacytometer with the microscope set on 10×.
The concentration of the stock CEM's in cells/ml is as follows:
Cells counted×1×10^5=Concentration of CEM's in [cells/ml].
c. Add 200 microliters Media A to: A1 of places 2-6. These are Blanks. A4-H4 of plate 1. These are Blanks.
d. Add 5 microlicers Media A to all wells of Rows A-D of plates 2-6 except A1 (the top half of each plate).
e. Add 50 microliters of Media A to wells A1-D3 of Plate 1 (the top half of the plate).
f. Add 50 microliters Media A[l% DMSO] to all wells of Columns 1-3 of plate 1.
This puts 1000 cells/well.
h. Put plates in an incubator while doing drug dilutions.
Preparation Control and Test Drugs
(1) Put 60 microliters of DMSO into all wells of Columns 2-12, Rows A-E.
(3) Put 70 microliters of A [10 mM] at 100% DMSO into well B1.
(4) Put 70 microliters of B [10 mM] at 100% DMSO into well C1.
(5) Put 70 microliters of C [10 mM] at 100% DMSO into well D1.
(6) Put 70 microliters of D [10 mM] at 100% DMSO into well E1.
Change tips before each dilution.
(1) In rows A-E of another plate make a row for the first 1:10 dilution to correspond to each compound's 100% DMSO row.
A into Row B for the first 1:10 dilution.
B into Row C for the first 1:10 dilution.
C into Row D for the first 1:10 dilution.
D into Row E for the first 1:10 dilution.
(2) Put 180 microliters of media A into all wells of rows A-E corresponding to the 100% DMSO rows. 2.5 ml needed per row.
(3) Remove 20 microliters from all wells of each row of the 100% DMSO rows and transfer it to the corresponding 1:10 row.
(1) Make a plate for every 3 compounds to be tested.
Use 20 ml of media A per plate.
(3) Transfer 25 microliters of each compound from the row in the 1:10 dilution to the corresponding two rows on the 1:100 dilution plate changing tips before each transfer.
Addition of Viral SN123 to Plates
a. Thaw Sn123 in 37° C. water bath for approximately 10 minutes.
b. Dilute Sn123 1:16 by adding 1 ml of Sn123 to 15 ml of media A.
c. Add 50 microliters of Sn123 [1:16] to wells E1-H12 of plates 2-6 and to wells E1-H3 of plate 1.
Addition of Drugs to Plates
a. Add 50 microliters of the control and test drugs from the rows in the 1:100 dilution plates to the appropriate rows in the final plates (changing tips before each transfer). One row in the 1:100 plate will do 4 rows in the final plate. Leave A1 blank.
b. Incubate all plates 7 days at 37° C. 5% CO2.
c. Do Xtt protocol on day 7 as follows:
d. Preparation of Xtt/PMS Solution: (4 plate=20 ml) (6 plate=30 ml)
100 microliters [100 mM] PMS+4.9 ml PBS=PMS at [2 mM]
(2) Heat 500 ml of H2O in microwave for 5 minutes on high.
(3) Put 20 or 30 ml of phenol red RPMI in a 50 ml centrifuge tube.
(4) Put the RPMI in the beaker of hot water.
(5) Add 20 or 30 mg of XTT to the warmed up RPMI.
The next assay deals with HIV-1 protease (Human immunodeficiency virus type 1 group M subtype B, UniProt P04585). The assay can be described thus: Fluorescence HIV-1 Protease Inhibitor Assay (Pandex). Format: biochemical. Also on record: made in house; host or cells: E. coli K12 L507/pHP10D (NRRL B-18560). The procedure: A. Preparation of Protease and Gag Fractions
Lyophils of E. coli K12 L507/pHP10D were obtained from the Northern Regional Research Laboratory, Peoria, Ill. 61604, under the accession number NRRL B-18560 (deposited Nov. 14, 1989). The lyophils were decanted into tubes containing 10 ml LB medium (10 g Bacto-tryptone, 5 g Bacto-yeast extract, and 10 g aqueous sodium chloride per liter; the pH was adjusted to 7.5 and incubated at 32° C. overnight).
A small portion of the overnight culture was placed on LB-agar (LB medium with 15 g/L Bacto-agar) plates containing 12.5 micrograms/ml tetracycline in a manner so as to obtain a single colony isolate of E. coli K12 L507/pHP10D. The single colony obtained was inoculated into 10 ml of LB medium containing 12.5 micrograms/ml tetracycline and incubated overnight at 32° C. with vigorous shaking. The 10 ml overnight culture was inoculated into LB medium containing 12.5 micrograms/ml tetracycline and incubated at 32° C. with vigorous shaking until the culture reached mid-log phase. […]
3. Preparation of Protease Fraction
A culture of E. coli K12 L507/pHP10D was grown to mid-log phase at 32° C. in LB media containing 12.5 micrograms/ml tetracycline. The cultivation temperature was quickly elevated to 40° C. to induce gene expression, and the cells were allowed to grow for 2.5 hours at this temperature before the culture was quickly chilled on ice. The cells were centrifuged and the cell pellet was resuspended in 20 ml of 50 mmol MES buffer (pH 6.0) containing 1 mmol EDTA, 1 mmol DTT, 1 mmol PMSF and 10% glycerol (“Buffer A”). Cells were lysed by sonication using a Fischer Model 300 Dismembrator and a microtip probe. Following centrifugation at 27,000×g, the supernatant was diluted to a total volume of 60 ml with Buffer A and loaded onto a 2.0×19 cm QAE-Sepharose column (1 ml/min, 4° C.), that had been equilibrated in Buffer A. The column was washed isocratically for 180 min and then eluted with a gradient eluent of […] aqueous sodium chloride in Buffer A over 120 min. Enzymatic activity was measured by HPLC using the synthetic peptide Ser-Gln-Asn-Tyr-Pro-Ile-Val as described in Margolin et al., Biochem. Biophys. Res. Commun., 167, 554-560 (1990); the production of the p1 peptide (Ser-Gln-Asn-Tyr) was measured.
The active fractions were combined, adjusted to […] 1.2M in ammonium sulfate, and applied to a 2.0×18 cm hexyl agarose column that had been equilibrated in Buffer A containing 1.2M ammonium sulfate. The sample was loaded at a flow rate of 1 ml/min at 4° C., washed with the equilibration buffer for 240 min (1 ml/min) and then eluted using a reverse linear gradient of 1.2-0M ammonium sulfate in Buffer A for 120 min at the same flow rate. The column was then washed isocratically in Buffer A for 120 min.
The active fractions were combined, concentrated to 10 ml using an Amicon stirred cell with a YM-10 membrane and then applied to a MonoS cation exchange column (1.0×10 cm) that had been equilibrated in Buffer A. The sample was loaded at a flow rate of 1 ml/min at 25° C. After washing isocratically for 30 min, the protease was eluted using a linear gradient of 0-0.45M aqueous sodium chloride in Buffer A over 40 min. The column was washed isocratically in Buffer A containing 0.45M aqueous sodium chloride for 30 minutes.
The active fractions were combined and concentrated to 200 microliters using an Amicon stirred cell and a YM-10 membrane and then the protease was applied to a Superose 6 size exclusion column equilibrated in Buffer A containing 0.1M aqueous sodium chloride.

Where [2] appears, read: Human immunodeficiency virus 1, CCRF-CEM, read-out: Whole cell IC50 nM.
[3] abbreviates: Human immunodeficiency virus 1, CCRF-CEM, read-out: Whole cell IC90 nM.
Setting [4] is: Human immunodeficiency virus 1, CCRF-CEM, read-out: Whole cell IC50 nM, CEM cells, values in parentheses are 35B in same assay.
Setting [5] is: Human immunodeficiency virus 1, CCRF-CEM, read-out: Whole cell IC90 nM, CEM cells, values in parentheses are 35B in same assay.
Where [6] appears, read: value as run, 35B value of the same run in footnote or parentheses, read-out: Pandex IC50 ng/ml (converted).
[7] abbreviates: normalized to positive control (=1.0), * = a calculated average, read-out: Fluorescence Assay IC50 in ng/mL (converted).

Counter-ions that a name gives are not always drawn. Like-named read-outs stand apart in the source and are kept apart here.

The IC90 is the concentration at which the effect reaches the 90% level. As to `Cc1c(O)cccc1C(=O)N[C@@H](CSc1ccccc1)[C@H](O)CN1C[C@H]2CCS[C@H]2C[C@H]1C(=O)NC(C)(C)C` (relative stereo) [Example 74 I, [6S-(6R*, 3aS*, 7aR*, 2′S*, 3′S*)]-2-[2′-Hydroxy-3′-phenylthiomethyl-4′-aza-5′-oxo-5′-(2″-methyl-3″-hydroxyphenyl)pentyl]-octahydrothieno[3,2-c]pyridine-6-N-t-butyl carboxamide methanesulfonic acid salt], the IC50 in assay [1] (setting [2]) came out at 4.06 nM; at HIV-1 protease (Table 2, read-out: IC50 (Pandex)), 0.3 nM. In addition, in assay [1] (setting [3]), the IC90 came out at 9.74 nM.
Turning to `Cc1c(OP(=O)(O)O)cccc1C(=O)N[C@@H](CSc1ccccc1)[C@H](O)CN1C[C@H]2CCCC[C@H]2C[C@H]1C(=O)NC(C)(C)C.Cl` (relative stereo) [Example 80, [3S-(3R*, 4aR*, 8aR*, 2′S*, 3′S*)]-2-[2′-Hydroxy-3′-phenylthiomethyl-4′-aza-5′-oxo-5′-(2″-methyl-3″-Hydroxyphenyl)pentyl]-decahydroisoquinoline-3-N-t-butyl carboxamide 3″-Dihydrogen Phosphate Hydrochloride], the IC50 in assay [1] (setting [4]) was 8.99 nM; at HIV-1 protease (setting [6]), 5.85 nM. Further, the IC90 in assay [1] (setting [5]) is 27.9 nM. Also, the “Pandex % at 22” value on HIV-1 protease (at 22 (ng/ml), wrapped cell) was 0.3% at.
Take `Cc1c(O)cccc1C(=O)N[C@@H](CSc1ccc(F)cc1)[C@H](O)CN1C[C@H]2CCCC[C@H]2C[C@H]1C(=O)NC(C)(C)C` (relative stereo) [Example 92, [3S-(3R*, 4aR*, 8aR*, 2′S*, 3′R*)]-2-(2′-Hydroxy-3′-(4′″-fluoro)phenylthiomethyl-4′-aza-5′-oxo-5′-(2″-methyl-3″-hydroxyphenyl)pentyl]-decahydroisoquinoline-3-N-t-butyl carboxamide]: the IC50 in assay [1] (setting [2]) is 2.01 nM; at HIV-1 protease (setting [6]), below 0.273 nM. In assay [1] (setting [3]), the IC90 was 57 nM.
As for `Cc1c(F)cccc1C(=O)NC(Cc1ccccc1)C(O)CN1CC2CCCCC2CC1C(=O)NC(C)(C)C` (stereo not drawn) [Example 7, [3S-(3R*,4aR*,8aR*,2′S*,3′R*)]-2-[2′-Hydroxy-3′-phenylmethyl-4′-aza-5′-oxo-5′-(2″-methyl-3″-fluorophenyl)pentyl] decahydroisoquinoline-3-N-t-butylcarboxamide], the values for the IC50 (in assay [1] (setting [4]); at HIV-1 protease (setting [7])) were 323 nM and 474 nM, respectively.
With `Cc1c(O)cccc1C(=O)N[C@@H](CSc1ccccc1)[C@H](O)CN1CCN(Cc2cccnc2)C[C@H]1C(=O)NC(C)(C)C` [Example 19], the IC50 was 16.1 nM in assay [1] (setting [4]), 0.528 nM on HIV-1 protease (setting [7]) and 0.693 nM on HIV-1 protease (setting [6]). Also, the IC90 in assay [1] (setting [5]) was 42 nM.
On to `Cc1ccccc1C(=O)NC(CSc1ccccc1)C(O)CN1CC2CCCCC2CC1C(=O)NC(C)(C)C` (stereo not drawn) [Example 29, [3S-(3R*,4aR*,8aR*,2′S*,3′S*)]-2-[2′-Hydroxy-3′-phenylthiomethyl-4′-aza-5′-oxo-5′-(2″-methyl-phenyl)pentyl] decahydroisoquinoline-3-N-t-butylcarboxamide], for which the IC50 is 1590 nM in assay [1] (setting [4]), 3.08 nM at HIV-1 protease (setting [7]) and 3.62 nM at HIV-1 protease (setting [6]). For the same compound, in assay [1] (setting [5]), the IC90 turned out to be 4460 nM.
As to `Cc1cnccc1C(=O)NC(CSc1ccccc1)C(O)CN1CC2CCCCC2CC1C(=O)NC(C)(C)C` (stereo not drawn) [Example 30, [3S-(3R*,4aR*,8aR*,2′S*,3′S*)]-2-[2′-Hydroxy-3′-phenylthiomethyl-4′-aza-5′-oxo-5′-(3″-methyl-pyrid-4″-yl)phentyl] decahydroisoquinoline-3-N-t-butylcarboxamide], the figures for the IC50 (in assay [1] (setting [4]); at HIV-1 protease (setting [7]); on HIV-1 protease (setting [6])) were 367 nM, 7.6 nM and 9.05 nM, respectively. Moreover, in assay [1] (setting [5]), the IC90 came to 736 nM.
On to `CC(C)(C)NC(=O)C1CC2CCCCC2CN1CC(O)C(CSc1ccccc1)NC(=O)c1cccc2ncccc12` (stereo not drawn) [Example 31, [3S-(3R*,4aR*,8aR*,2′S*,3′S*)]-2-[2′-Hydroxy-3′-phenylthiomethyl-4′-aza-5′-oxo-5′-(quinolin-5″-yl)pentyl] decahydroisoquinoline-3-N-t-butylcarboxamide], for which the IC50 is 430 nM in assay [1] (setting [4]), 2.04 nM at HIV-1 protease (setting [7]) and 5.94 nM on HIV-1 protease (setting [6]). For the same compound, in assay [1] (setting [5]), the IC90 amounted to 884 nM.
In the same order, the values of `CC(C)(C)NC(=O)C1CC2CCCCC2CN1CC(O)C(CSc1ccccc1)NC(=O)c1cccc2c1CCCN2` (stereo not drawn) [Example 32, [3S-(3R*,4aR*,8aR*,2′S*,3′S*)]-2-[2′-Hydroxy-3′-phenylthiomethyl-4′-aza-5′-oxo-5′-(1″,2″,3″,4″-tetrahydroquinolin-5″-yl)pentyl] decahydroisoquinoline-3-N-t-butylcarboxamide] are 539 nM, 0.877 nM, 2.53 nM and 2310 nM.
In the same order, the values of `CC(C)(C)NC(=O)[C@@H]1CN(Cc2cccnc2)CCN1C[C@@H](O)[C@H](CSc1ccccc1)NC(=O)c1cccc2c1CCCN2` [Example 33, [3S-(2R*,2′S*,3′S*)]-1-[2′-Hydroxy-3′-phenylthiomethyl-4′-aza-5′-oxo-5′-(1″,2″,3″,4″-tetrahydroquinolin-5″-yl)pentyl]-4-(pyrid-3′″-ylmethyl)piperazine-2N-t-butylcarboxamide] are 39.5 nM, 2.69 nM, 3.17 nM and 200 nM.
“[2S-(2R*,2′S*,3′S*)]-1-[2′-Hydroxy-3′-phenylthiomethyl-4′-aza-5′-oxo-5′-(quinolin-5″-yl)pentyl]-4-(pyrid-3′″-ylmethyl)piperazine-2N-t-butylcarboxamide [Example 34]”: the IC50 in assay [1] (read-out: Whole cell IC50 nM, CEM cells, values in parentheses are 35B in same assay) is 149 nM. The IC90 in assay [1] (read-out: Whole cell IC90 nM, CEM cells, values in parentheses are 35B in same assay) came to 564 nM. Also, the “Fluorescence Assay IC50” value on HIV-1 protease (normalized to positive control (=1.0), * = a calculated average) is reported as 4.5 ng/mL. Further, the “Pandex IC50 ng/ml” value on HIV-1 protease (value as run, 35B value of the same run in footnote or parentheses) was 5.4^b ng/ml.
